Test results taken from patent US20110262508A1, “ANTIMICROBIAL COMPOSITIONS, FORMULATIONS AND USES THEREOF” (priority 2007, published 2011).
Peptide text beside a SMILES is read from it.

Tests used:
[1] = system: A. baumannii ATCC 19606, Acinetobacter spp. ATCC 17903, Acinetobacter spp. ATCC 19004, E. coli BL21, S. aureus, S. typhimurium AroA, P. aeruginosa, P. …; test: Antibacterial spectrum over the serial dilution panel (Table 6); type: cell-based; conditions: summary of Table 6
Protocol: Synthetic peptides were tested for their ability to inhibit bacterial growth in liquid culture. The peptides were added at a concentration of between about 5 μM and about 10 μM to individual wells of 96-deep-well dishes that contained liquid growth media freshly inoculated with one of the following bacteria: A. baumannii ATCC Accession No. 19606, Acinetobacter spp. ATCC 17903, Acinetobacter spp. ATCC 19004, Escherichia coli strain BL21, S. aureus, S. typhimurium strain AroA, P. aeruginosa or P. pneumotropica. After 5-6 hours of shaking at 37° C., growth was measured as absorbance at 595 nm. As a control, cultures were grown in the presence of 0.1% acetonitrile (i.e., the concentration present in 10 μM peptide).

A. baumannii = type: cell-based
Method in brief: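 Laboratory strains and 50 clinical isolates of A. baumannii were tested by CLSI broth microdilution, with serially diluted peptide (0.1-64 μg) and about 1×10^5 C.F.U. per well, incubated aerobically overnight at 35±2° C. MIC was read visually. MBC came from subculturing clear wells, as ≥99.9% inoculum reduction.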

Row | SMILES | selectively inhibited growth of S. aureus [1] | further results
1 | CC[C@H](C)[C@H](NC(=O)[C@H](CCCCN)NC(=O)[C@H](CO)NC(=O)[C@H](CC(C)C)NC(=O)[C@@H](N)CC(C)C)C(=O)N[C@@H](CCCNC(=N)N)C(=O)N[C@@H](C)C(=O)N[C@@H](CC(C)C)C(=O)N[C@@H](CCCNC(=N)N)C(=O)N[C@@H](CCCNC(=N)N)C(=O)N[C@@H](CCCNC(=N)N)C(=O)N[C@@H](CCCNC(=N)N)C(=O)N[C@@H](Cc1ccccc1)C(=O)NCC(=O)N[C@@H](CCC(N)=O)C(=O)N[C@@H](CO)C(=O)N[C@@H](CC(=O)O)C(=O)N[C@@H](CCCCN)C(=O)N[C@@H](CCCNC(=N)N)C(=O)N[C@H](C(=O)N[C@@H](CO)C(=O)N[C@@H](Cc1ccc(O)cc1)C(=O)N[C@@H](CCCCN)C(=O)O)[C@@H](C)CC [Ac16] (H-LLSKIRALRRRRFGQSDKRISYK-OH) | – | selectively inhibited growth of A. baumannii ATCC Accession No. 19606, Acinetobacter spp. ATCC 17903 and Acinetobacter spp. ATCC 19004 [1]: selectively inhibited growth; MIC (μM) for non-amidated Peptide (A. baumannii): 10 to 15 µM
2 | CC[C@H](C)[C@H](NC(=O)[C@H](Cc1c[nH]c2ccccc12)NC(=O)[C@H](CC(=O)O)NC(=O)[C@H](CO)NC(=O)[C@H](CO)NC(=O)[C@H](CC(C)C)NC(=O)[C@H](CC(C)C)NC(=O)[C@H](C)NC(=O)[C@H](CO)NC(=O)[C@H](CCCNC(=N)N)NC(=O)[C@H](CC(C)C)NC(=O)[C@@H](N)CCCNC(=N)N)C(=O)N[C@H](C(=O)N[C@@H](CO)C(=O)N[C@@H](CO)C(=O)N[C@@H](CCCNC(=N)N)C(=O)N[C@@H](CC(C)C)C(=O)N[C@@H](CC(C)C)C(=O)NCC(=O)N[C@H](C(=O)N[C@@H](CC(N)=O)C(=O)N[C@@H](CO)C(=O)N[C@@H](CCC(N)=O)C(=O)O)C(C)C)C(C)C [Ac41] (H-RLRSALLSSDWIVSSRLLGVNSQ-OH; N-terminus and C-terminus assumed) | – | selectively inhibited growth of Acinetobacter spp. ATCC 19004, and S. aureus [1]: selectively inhibited growth
3 | CSCC[C@H](NC(=O)[C@H](CCCNC(=N)N)NC(=O)[C@H](CO)NC(=O)[C@H](CCCNC(=N)N)NC(=O)[C@H](CCCNC(=N)N)NC(=O)[C@H](CC(N)=O)NC(=O)[C@H](Cc1c[nH]cn1)NC(=O)[C@@H]1CCCN1C(=O)[C@H](Cc1c[nH]cn1)NC(=O)[C@@H]1CCCN1C(=O)[C@H](Cc1c[nH]cn1)NC(=O)[C@@H](NC(=O)[C@H](CCC(N)=O)NC(=O)[C@@H](NC(=O)[C@H](Cc1ccc(O)cc1)NC(=O)[C@H](Cc1c[nH]cn1)NC(=O)[C@H](Cc1c[nH]cn1)NC(=O)[C@H](Cc1c[nH]cn1)NC(=O)[C@@H](N)Cc1c[nH]c2ccccc12)[C@@H](C)O)[C@@H](C)O)C(=O)N[C@@H](CO)C(=O)N[C@@H](CCCNC(=N)N)C(=O)N[C@@H](C)C(=O)N[C@@H](CCCNC(=N)N)C(=O)O [Ac56] (H-WHHHYTQTHPHPHNRRSRMSRAR-OH; N-terminus and C-terminus assumed) | selectively inhibited growth | –
4 | CC[C@H](C)[C@H](NC(=O)[C@H](CCSC)NC(=O)[C@H](Cc1c[nH]c2ccccc12)NC(=O)[C@@H](N)Cc1c[nH]cn1)C(=O)N1CCC[C@H]1C(=O)N[C@@H](CC(C)C)C(=O)N[C@@H](CCCNC(=N)N)C(=O)N[C@@H](CCCCN)C(=O)NCC(=O)N[C@@H](C)C(=O)N[C@@H](CCC(N)=O)C(=O)N[C@@H](Cc1ccc(O)cc1)C(=O)N[C@@H](CCC(=O)O)C(=O)N[C@@H](CCC(=O)O)C(=O)N[C@@H](CC(C)C)C(=O)N[C@@H](CCCNC(=N)N)C(=O)N[C@@H](CCCCN)C(=O)N[C@@H](CC(C)C)C(=O)N[C@@H](CO)C(=O)N[C@@H](CCCCN)C(=O)NCC(=O)N[C@@H](CC(=O)O)C(=O)N[C@@H](Cc1c[nH]cn1)C(=O)O [Ac97] (H-HWMIPLRKGAQYEELRKLSKGDH-OH; N-terminus and C-terminus assumed) | selectively inhibited growth | –
5 | CC(C)C[C@H](NC(=O)[C@H](CCCCN)NC(=O)[C@H](CCCNC(=N)N)NC(=O)[C@H](CC(C)C)NC(=O)[C@H](CCC(=O)O)NC(=O)[C@H](CCC(=O)O)NC(=O)[C@H](Cc1ccc(O)cc1)NC(=O)[C@H](CCC(N)=O)NC(=O)[C@H](C)NC(=O)CN)C(=O)N[C@@H](CO)C(=O)N[C@@H](CCCCN)C(=O)NCC(=O)N[C@@H](CC(=O)O)C(=O)N[C@@H](Cc1c[nH]cn1)C(=O)N[C@@H](CC(C)C)C(=O)N[C@H](C(=O)N[C@@H](CCCCN)C(=O)N[C@@H](CC(C)C)C(=O)N[C@@H](CCCCN)C(=O)N[C@H](C(=O)N[C@@H](CO)C(=O)N1CCC[C@H]1C(=O)O)[C@@H](C)O)C(C)C [Ac98] (H-GAQYEELRKLSKGDHLVKLKTSP-OH; N-terminus and C-terminus assumed) | selectively inhibited growth | –
6 | CC(C)C[C@H](NC(=O)CNC(=O)[C@@H]1CCCN1C(=O)[C@H](Cc1c[nH]c2ccccc12)NC(=O)[C@H](CCCCN)NC(=O)[C@H](CCCCN)NC(=O)[C@H](CCCNC(=N)N)NC(=O)[C@H](C)NC(=O)[C@H](CCC(N)=O)NC(=O)[C@@H]1CCCN1)C(=O)NCC(=O)N[C@@H](CC(N)=O)C(=O)N[C@@H](CCC(=O)O)C(=O)N[C@H](C(=O)N[C@H](C(=O)N[C@@H](C)C(=O)N[C@@H](CCCNC(=N)N)C(=O)N[C@@H](CC(C)C)C(=O)N[C@@H](CC(C)C)C(=O)N[C@H](C(=O)N[C@H](C(=O)N[C@@H](CO)C(=O)N[C@@H](C)C(=O)O)C(C)C)[C@@H](C)O)[C@@H](C)O)C(C)C [Ac100] (H-PQARKKWPGLGNEVTARLLTVSA-OH; N-terminus and C-terminus assumed) | selectively inhibited growth | –
7 | CC[C@H](C)[C@H](NC(=O)[C@H](CO)NC(=O)[C@H](CCCNC(=N)N)NC(=O)[C@@H]1CCCN1C(=O)[C@H](Cc1c[nH]c2ccccc12)NC(=O)[C@H](Cc1c[nH]cn1)NC(=O)[C@H](CC(N)=O)NC(=O)[C@H](Cc1c[nH]c2ccccc12)NC(=O)[C@H](CCCCN)NC(=O)[C@H](CCCCN)NC(=O)CNC(=O)[C@H](CCCCN)NC(=O)[C@H](CCC(N)=O)NC(=O)[C@H](CCCCN)NC(=O)[C@H](CCCCN)NC(=O)[C@H](CO)NC(=O)[C@H](CCCNC(=N)N)NC(=O)[C@H](CC(C)C)NC(=O)[C@H](CC(N)=O)NC(=O)[C@H](C)N)C(=O)N[C@@H](CCCCN)C(=O)N[C@@H](C)C(=O)O [Ac101] (H-ANLRSKKQKGKKWNHWPRSIKA-OH; N-terminus and C-terminus assumed) | – | selectively inhibited growth of Acinetobacter spp. ATCC 19004, and S. aureus [1]: selectively inhibited growth
8 | CC[C@H](C)[C@H](NC(=O)[C@H](CCCNC(=N)N)NC(=O)[C@H](CCCNC(=N)N)NC(=O)[C@H](CS)NC(=O)CNC(=O)[C@H](CO)NC(=O)[C@@H](NC(=O)[C@@H](NC(=O)[C@H](CC(=O)O)NC(=O)[C@H](CCCCN)NC(=O)[C@@H](NC(=O)[C@H](CS)NC(=O)[C@@H](NC(=O)[C@@H](N)Cc1ccccc1)C(C)C)C(C)C)[C@@H](C)O)[C@@H](C)CC)C(=O)N[C@H](C(=O)NCC(=O)N[C@@H](Cc1ccccc1)C(=O)N[C@@H](CS)C(=O)N[C@H](C(=O)NCC(=O)N[C@@H](Cc1c[nH]c2ccccc12)C(=O)N[C@@H](CCCNC(=N)N)C(=O)N[C@@H](CC(C)C)C(=O)O)C(C)C)[C@@H](C)O [Ac102] (H-FVCVKDTISGCRRITGFCVGWRL-OH; N-terminus and C-terminus assumed) | – | selectively inhibited growth of Acinetobacter spp. ATCC 19004, and S. aureus [1]: selectively inhibited growth
9 | CC[C@H](C)[C@H](NC(=O)[C@H](CCCNC(=N)N)NC(=O)[C@H](CCCNC(=N)N)NC(=O)[C@H](CS)NC(=O)CN)C(=O)N[C@H](C(=O)NCC(=O)N[C@@H](Cc1ccccc1)C(=O)N[C@@H](CS)C(=O)N[C@H](C(=O)NCC(=O)N[C@@H](Cc1c[nH]c2ccccc12)C(=O)N[C@@H](CCCNC(=N)N)C(=O)N[C@@H](CC(C)C)C(=O)N[C@@H](CC(C)C)C(=O)N[C@@H](CC(C)C)C(=O)N[C@@H](CC(C)C)C(=O)N[C@@H](CC(C)C)C(=O)N[C@H](C(=O)NCC(=O)N[C@@H](CO)C(=O)NCC(=O)N[C@H](C(=O)O)C(C)C)[C@@H](C)O)C(C)C)[C@@H](C)O [Ac103] (H-GCRRITGFCVGWRLLLLLTGSGV-OH; N-terminus and C-terminus assumed) | selectively inhibited growth | –
10 | CC[C@H](C)[C@H](NC(=O)[C@H](CC(C)C)NC(=O)[C@H](CCCCN)NC(=O)[C@@H](N)Cc1ccccc1)C(=O)N1CCC[C@H]1C(=O)N[C@H](C(=O)N[C@@H](CCCNC(=N)N)C(=O)N[C@@H](CCCNC(=N)N)C(=O)N[C@@H](CO)C(=O)N[C@@H](CO)C(=O)N[C@@H](CC(C)C)C(=O)N[C@H](C(=O)N[C@@H](CCCCN)C(=O)N[C@@H](CO)C(=O)N[C@@H](CC(C)C)C(=O)N1CCC[C@H]1C(=O)N[C@@H](C)C(=O)N[C@@H](Cc1ccccc1)C(=O)N[C@@H](CCCNC(=N)N)C(=O)N[C@@H](CCCNC(=N)N)C(=O)N[C@@H](CCCCN)C(=O)N[C@@H](C)C(=O)N1CCC[C@H]1C(=O)O)C(C)C)[C@@H](C)O [Ac116] (H-FKLIPTRRSSLVKSLPAFRRKAP-OH; N-terminus and C-terminus assumed) | – | selectively inhibited growth of Acinetobacter spp. ATCC 19004 [1]: selectively inhibited growth
11 | CC[C@H](C)[C@H](NC(=O)CN)C(=O)NCC(=O)N[C@@H](CCCCN)C(=O)N[C@@H](Cc1ccccc1)C(=O)N[C@@H](CC(C)C)C(=O)N[C@@H](Cc1c[nH]cn1)C(=O)N[C@@H](CO)C(=O)N[C@@H](C)C(=O)N[C@@H](CCCCN)C(=O)N[C@@H](CCCCN)C(=O)N[C@@H](Cc1ccccc1)C(=O)NCC(=O)N[C@@H](CCCCN)C(=O)N[C@@H](C)C(=O)N[C@@H](Cc1ccccc1)C(=O)N[C@H](C(=O)NCC(=O)N[C@@H](CCC(=O)O)C(=O)N[C@H](C(=O)N[C@@H](CCSC)C(=O)N[C@@H](CC(N)=O)C(=O)N[C@@H](CO)C(=O)O)[C@@H](C)CC)C(C)C [Ac178, reference compound] (H-GIGKFLHSAKKFGKAFVGEIMNS-OH; N-terminus and C-terminus assumed) | selectively inhibited growth | –
